This is an account of results in patent US20120276122A1, “METHODS FOR DIAGNOSIS AND TREATMENT OF CELLULAR PROLIFERATIVE DISORDERS” (Sanford-Burnham Medical Research Institute, priority 2010, published 2012).

For one assay, the system named is Jun2 promoter. Briefly: Jun2 promoter-luciferase assay (ATF2 transcriptional activity). Format: cell-based. The note with it: for Jun2-luciferase activity: SCC9. The protocol:
(§1) C) is a photograph depicting coverslip-grown SCC9 cells that were co-treated with 40 ng/ml leptomycin B (LMB) and ETO overnight, and were subsequently fixed and immunofluorescently stained as indicated. D) is a gel depicting SCC9 cells transfected with the Jun2 promoter-luciferase construct and assayed for luciferase activity prior to (Control) or after ETO treatment. E) is a bar graph depicting luciferase activity of mitochondria (M) purified from ETO-treated SCC9 cells subject to proteolysis protection assay with titrated concentrations of trypsin: 0.2 (1), 0.1 (2), 0.05 (3), 0.025 (4), or 0.0125 (5) μg in the absence or presence of 1% Triton X-100 (TX) detergent. Scale bars represent 10 μm.
FIG. 3A) is an image depicting coverslip-grown SCC9 cells treated with 1 or 5 μM PKCε translocation inhibitor overnight, and immunofluorescently stained with indicated antibodies. B) is a photograph depicting coverslip-grown SCC9 cells treated with 10 nM siRNA targeting PKCε overnight were immunofluorescently stained with indicated antibodies. […] F) is a photograph depicting coverslip-grown SCC9 cells were transfected with HA-tagged wildtype ATF2 (WT), ATF2T52A or ATF2T52E, and subsequently immunofluorescently stained with indicated antibodies. G-H) is a series of bar graphs that show quantitation of (Left) SCC9 cells transfected with Jun2 promoter-luciferase construct and empty vector (EV) or caPKCε, assayed for luciferase activity after ETO treatment. (Right) SCC9 cells stably knocked down for ATF2 with a 3′-UTR-targeted shRNA, reconstituted with Jun2 promoter-luciferase construct and ATF2 (WT), ATF2T52A or ATF2T52E and subsequently assayed for luciferase activity. Scale bars represent 10 μm.

The target in the next assay is T1, PKCε (Homo sapiens, UniProt Q02156).
T1 sequence (Q02156 1-737): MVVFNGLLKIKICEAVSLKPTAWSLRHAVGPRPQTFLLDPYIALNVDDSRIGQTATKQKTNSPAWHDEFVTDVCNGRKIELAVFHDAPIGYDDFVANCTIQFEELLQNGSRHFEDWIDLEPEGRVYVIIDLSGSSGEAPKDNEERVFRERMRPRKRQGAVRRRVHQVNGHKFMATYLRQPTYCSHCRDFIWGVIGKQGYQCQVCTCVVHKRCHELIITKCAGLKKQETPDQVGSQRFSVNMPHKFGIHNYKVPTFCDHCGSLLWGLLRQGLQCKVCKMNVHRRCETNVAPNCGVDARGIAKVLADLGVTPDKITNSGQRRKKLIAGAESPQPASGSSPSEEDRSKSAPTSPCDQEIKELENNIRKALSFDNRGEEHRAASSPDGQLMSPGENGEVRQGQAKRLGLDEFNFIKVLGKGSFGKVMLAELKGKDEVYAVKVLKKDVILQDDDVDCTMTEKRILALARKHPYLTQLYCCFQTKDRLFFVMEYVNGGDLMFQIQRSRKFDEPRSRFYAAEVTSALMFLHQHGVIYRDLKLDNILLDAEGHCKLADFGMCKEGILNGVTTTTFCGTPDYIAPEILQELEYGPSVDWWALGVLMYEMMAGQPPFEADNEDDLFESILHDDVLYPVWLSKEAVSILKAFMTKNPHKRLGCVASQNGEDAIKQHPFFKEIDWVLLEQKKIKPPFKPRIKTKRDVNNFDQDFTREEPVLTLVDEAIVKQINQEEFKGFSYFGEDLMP
The assay can be described thus: In vitro kinase assay, PKCε phosphorylation of GST-tagged ATF2 50-100 peptide. Format: biochemical. The procedure: To determine whether Thr52, the predicted PKCε site for phosphorylation of ATF2, regulates mitochondrial translocation of ATF2, phosphorylation of ATF2 by PKCε in vitro was assessed, as well as the localization of ATF2^T52A (a non-phosphorylatable alanine phosphomutant) and ATF2^T52E (a glutamic acid phosphomimic). […] This phosphorylation is inhibited upon addition of PKCε catalytic inhibitor, Gö6850 (FIG. 3E). […] Collectively, these findings establish that ATF2 mitochondrial localization is regulated by PKCε through phosphorylation at T52.

The test system of assay [1] is SCC9 cells. The assay can be described thus: ATF2 mitochondrial localization, immunofluorescent staining of coverslip-grown cells. The assay is classed as cell-based. The note with it: for cells with ATF2 accumulation at the mitochondria: SCC9, 5 μM etoposide overnight, 3 replicate coverslips. The procedure: as §1, with “FIG. 1A) is an image depicting control, 5 μM etoposide-treated (ETO, overnight treatment), UVC-treated (20 J/m^2), ionizing radiation-treated (IR, 5Gy), or 40 ng/ml leptomycin B (LMB) and ETO co-treated SCC9 cells grown on coverslips were immunofluorescently stained for HSP60,ATF2 or DNA. Immunostained control and ETO panels represent 89±4% and 64±11%, respectively, of the cells from 3 independent replicate coverslips per condition (n>100 cells counted per replicate). […] C)” for “C)”
Following indicated treatments, coverslip-grown cells were fixed in fixation buffer containing 4% formaldehyde and 2% sucrose in phosphate buffered saline (PBS) for 20 minutes at room temperature. After fixation, coverslips were rinsed twice in PBS and permeabilized in permeabilization buffer (0.4% Triton X-100 (TX-100)/0.4% bovine serum albumin (BSA) in PBS) for 20 minutes. Primary antibodies were applied at 1:250 dilution in staining buffer (0.1% TX-100/0.1% BSA in PBS) overnight at 4° C. in a humid chamber. Coverslips were subsequently subject to 5 standing washes in wash buffer (0.2% TX-100/0.2% BSA in PBS, 5 minutes per wash). Secondary antibodies (Alexa Fluor secondary 350, 488 or 568, Invitrogen) were applied at 1:250 dilution in staining buffer for 2-3 hours at room temperature in a humid chamber in the dark. Prior to mounting with Vectorshield containing DAPI (Vector Laboratories, CA), coverslips were washed twice additionally in wash buffer. Immunofluorescent analysis was conducted on an Olympus TH4-100 fluorescent microscope. At least 3 Z-planes per field were captured and analyzed using Slidebook V.4.1, and Z-projection images of average intensity were constructed using ImageJ V.1.43u.

Assay [2] concerns SCC9 cells. The assay can be described thus: Annexin-V / propidium iodide staining and FACS analysis (cell death). The assay is classed as cell-based. The note with it: SCC9, 5 μM, overnight, representative FACS plot. In general terms: In flow cytometry, cells or beads pass a laser one at a time.
Description: Cells were stained with Annexin-V and subject to FACS analysis. n=10,000 cells per replicate; 3 replicates per condition were performed. •: p=0.0001; #: p<0.0001.
For FACS analyses, n=10,000 cells per replicate over 3 independent replicates.
The next assay has as its system ATF2 pT52. The assay can be described thus: Immunoblot densitometry of pT52/Total ATF2. The assay is classed as cell-based. The note with it: SCC9, etoposide treatment. Background: In western blotting, separated proteins are transferred to a membrane and probed.
A further assay has as its system PKCε pS729. The assay can be described thus: Immunoblot of pS729 PKCε (active PKCε). Format: cell-based. The note with it: SCC9, 5 μM overnight.
In assay [3] the test system is SCC9 cells. Briefly: HK1 co-localization with mitochondria (immunostaining and MitoTracker). The assay is classed as cell-based. The note with it: SCC9, 5 μM etoposide overnight. The text has this: The arrowheads indicate HA-positive cells. Scale bars represent 10 μm.
The test system of the next assay is melanoma cells. The note with it: melanoma cells versus melanocytes; cited from earlier work.
Another assay concerns ATF2. The note with it: cited from earlier work; for ATF2 nuclear exclusion: melanoma cells.
Another assay has as its system melanoma. The note with it: syngeneic mice, human melanoma xenografts; cited from earlier work. On the technique in general: Xenograft models place foreign cells or tissue in a host animal.

Excerpt for ATF2 pT52: B) Control or ATF2 -knocked down LU1205 cells were subject to immunoblot analysis with indicated antibodies. […] D) is an image showing control or ETO-treated coverslip-grown LU1205, 501Mel or UACC903 cells immunofluorescently stained with indicated antibodies.

`CN(C)CCCn1cc(C2=C(c3c[nH]c4ccccc34)C(=O)NC2=O)c2ccccc21` [Gö6850]: the Jun2-luciferase activity entry in the assay on Jun2 promoter is on record as “reduce Jun2-luciferase activity to similar extents as knockdown of ATF2”. For the same molecule, the “PKCε phosphorylation of WT ATF2 peptide” value on PKCε is given as “inhibited”.

With `COc1cc([C@@H]2c3cc4c(cc3[C@@H](O[C@@H]3O[C@@H]5CO[C@@H](C)O[C@H]5[C@H](O)[C@H]3O)[C@H]3COC(=O)[C@H]23)OCO4)cc(OC)c1O` [etoposide], the “cells with ATF2 accumulation at the mitochondria” value was ~64% with SCC9 cells [1] and 64±11% in the assay on SCC9 cells [1] (listed as ETO). Moreover, the Jun2-luciferase activity entry with Jun2 promoter is reported as “reduce Jun2-luciferase activity to similar extents as knockdown of ATF2”. For the same molecule, in the assay on Jun2 promoter (SCC9, after ETO treatment), the “reduction of luciferase activity driven by the Jun2 promoter” value is recorded as ~50%. Also, the “Annexin V-negative (AV−) percentage” value with SCC9 cells [2] worked out at 89.5%. In addition, the “Annexin V-positive (AV+) percentage” value in the assay on SCC9 cells [2] is recorded as 11.5%. In addition, the “levels of pT52” value with ATF2 pT52 was “lower”. For the same molecule, in the assay with PKCε pS729, the “PKCε phosphorylation on Ser729” value is listed as “decreased”. Also, in the assay with SCC9 cells [3], the “HK1 co-localization with mitochondria” value is “enhanced”.

Consider `CCC(=C/[C@H](C)C/C=C/C(C)=C/[C@@H](C)C(=O)[C@@H](C)[C@H](O)[C@@H](C)C/C(C)=C/C(=O)O)/C=C/[C@@H]1OC(=O)C=C[C@@H]1C` [leptomycin B], for which the “mitochondrial accumulation of ATF2 following etoposide treatment” value in the assay on SCC9 cells [1] (SCC9, 40 ng/ml leptomycin B with ETO) is given as “prevented mitochondrial accumulation of ATF2”. Moreover, the “ATF2 mitochondrial translocation following inhibition of PKCε” value with SCC9 cells [1] (SCC9, leptomycin B pre-treatment 40 ng/ml 6 hours, then 5 μM PKCε-i) is “efficiently blocked”.

Regarding “ATF2 50-60 peptide: 10 amino acid long peptide derived from ATF2 (amino acids 50-60), contains T52 (EMTLKFGPARN; UniProt P15336 50-60, looked up, fragment)”, the sensitization to apoptosis entry in the assay with melanoma cells was “sensitized melanoma cells (but not melanocytes) to apoptosis”. Further, in the assay on ATF2, the ATF2 transcriptional activity entry is “inhibit ATF2 transcriptional activity” and the ATF2 nuclear exclusion result is “caused nuclear exclusion of ATF2”. In the assay with melanoma, the melanoma growth entry is listed as “inhibit melanoma growth in syngeneic mice”.

As for “ATF2 50-100 peptide: 50 amino acid long peptide derived from ATF2 (amino acids 50-100), contains T52 (EMTLKFGPARNDSVIVADQTPTPTRFLKNCEEVGLFNELASPFENEFKKAS; UniProt P15336 50-100, looked up, fragment)”, the sensitization to apoptosis entry with melanoma cells was “sensitized melanoma cells (but not melanocytes) to apoptosis”. Further, in the assay on ATF2, the ATF2 transcriptional activity entry was “inhibit ATF2 transcriptional activity” and the ATF2 nuclear exclusion result is on record as “caused nuclear exclusion of ATF2”. Moreover, the melanoma growth result with melanoma is “inhibit melanoma growth in syngeneic mice”.
